Laboratory results reported in article PMC6532652, “Enantiospecific Synthesis, Chiral Separation, and Biological Activity of Four Indazole-3-Carboxamide-Type Synthetic Cannabinoid Receptor Agonists and Their Detection in Seized Drug Samples” (Frontiers in Chemistry, 2019).

Legend:
CB2 = target: T1, CB2 (Homo sapiens, UniProt P34972); assay: NanoLuc complementation beta-arrestin […] recruitment, live cells; type: cell-based; conditions: read-out: CB2 / EC50 (nM) (± 95% CI)
T1 construct: gene CNR2; co-expressed with beta-arrestin 2 fused to the complementary fragment
T1 sequence (P34972 whole entry, the tested form may be a part): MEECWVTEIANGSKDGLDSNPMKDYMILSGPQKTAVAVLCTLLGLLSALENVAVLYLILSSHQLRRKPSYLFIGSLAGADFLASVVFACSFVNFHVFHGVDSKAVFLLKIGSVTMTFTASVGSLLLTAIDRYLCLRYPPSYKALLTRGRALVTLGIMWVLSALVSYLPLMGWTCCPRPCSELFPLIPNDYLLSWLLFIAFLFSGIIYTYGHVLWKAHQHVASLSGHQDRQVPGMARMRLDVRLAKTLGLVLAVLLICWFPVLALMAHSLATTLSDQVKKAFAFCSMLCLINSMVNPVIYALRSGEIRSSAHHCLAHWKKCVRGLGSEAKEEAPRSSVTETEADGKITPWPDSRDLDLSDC

CB1 = target: T2, CB1 (Homo sapiens, UniProt P21554); assay: as above; type: cell-based; conditions: read-out: CB1 / EC50 (nM) (± 95% CI)
T2 construct: gene CNR1; co-expressed with beta-arrestin 2 fused to the complementary fragment
T2 sequence (P21554 whole entry, the tested form may be a part): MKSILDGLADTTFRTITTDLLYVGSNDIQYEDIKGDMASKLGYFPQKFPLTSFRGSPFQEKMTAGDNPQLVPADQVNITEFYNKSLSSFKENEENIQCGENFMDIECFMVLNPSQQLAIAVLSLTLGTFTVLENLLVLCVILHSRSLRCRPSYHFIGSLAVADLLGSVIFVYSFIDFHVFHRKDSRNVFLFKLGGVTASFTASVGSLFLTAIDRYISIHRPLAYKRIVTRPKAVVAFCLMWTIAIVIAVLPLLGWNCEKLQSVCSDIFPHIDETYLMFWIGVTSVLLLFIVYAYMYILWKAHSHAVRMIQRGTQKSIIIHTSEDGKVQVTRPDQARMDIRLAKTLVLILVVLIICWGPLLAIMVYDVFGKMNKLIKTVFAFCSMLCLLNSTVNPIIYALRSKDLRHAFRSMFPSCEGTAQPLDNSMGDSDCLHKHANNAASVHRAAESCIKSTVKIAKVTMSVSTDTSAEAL

Compound	EC50 (CB2) [nM]	EC50 (CB1) [nM]
CC(C)[C@@H](NC(=O)c1nn(Cc2ccc(F)cc2)c2ccccc12)C(N)=O [compound 1, (R)-AB-FUBINACA]	102	1480
COC(=O)[C@H](NC(=O)c1nn(Cc2ccc(F)cc2)c2ccccc12)C(C)C [compound 2, (R)-AMB-FUBINACA]	1.19	55.8
COC(=O)[C@@H](NC(=O)c1nn(Cc2ccc(F)cc2)c2ccccc12)C(C)C [compound 2, methyl (2S)-2-(1-(4-fluorobenzyl)-1H-indazole-3-carboxamido)-3-methylbutanoate]	0.77	9.11
COC(=O)[C@H](NC(=O)c1nn(CCCCCF)c2ccccc12)C(C)(C)C [compound 3, (R)-5F-MDMB-PINACA]	6.87	131
COC(=O)[C@@H](NC(=O)c1nn(CCCCCF)c2ccccc12)C(C)(C)C [compound 3, (S)-5F-MDMB-PINACA]	1.46	1.78
CC(C)[C@@H](NC(=O)c1nn(CC2CCCCC2)c2ccccc12)C(N)=O [compound 4, (R)-AB-CHMINACA]	33.6	319
CCCCCn1cc(C(=O)c2cccc3ccccc23)c2ccccc21 [compound 19, JWH-018, reference compound]	9.71	45.1
CC(C)[C@H](NC(=O)c1nn(Cc2ccc(F)cc2)c2ccccc12)C(N)=O [compound 1, N-(2S)-(1-amino-3-methyl-1-oxobutan-2-yl)-1-(4-fluorobenzyl)-1H-indazole-3-carboxamide]	1.6	12.9
CC(C)[C@H](NC(=O)c1nn(CC2CCCCC2)c2ccccc12)C(N)=O [compound 4, N-(2S)-(1-amino-3-methyl-1-oxobutan-2-yl)-1-(cyclohexylmethyl)-1H-indazole-3-carboxamide]	1.75	6.16
